Laboratory results: PMC8097242, “Galectin-4 N-Terminal Domain: Binding Preferences Toward A and B Antigens With Different Peripheral Core Presentations” (Frontiers in Chemistry, 2021)
Blank lines part the entries; values can stand above or below the compound they belong to.

Tests used:
Assay type in all cases: binding
[1] = target: T1, N-terminal CRD of hGalectin-4 (Gal-4N) (Homo sapiens, UniProt P56470); assay: 1H-15N HSQC NMR-based titrations (chemical shift perturbation) of 15N-labeled Gal-4N
T1 construct: N-terminal CRD of hGalectin-4 (amino acids 1–150, including an additional C-terminus His-Tag); His-Tag (C, cleaved yes); made in house; host or cells: E. coli BL21 (pET29b)
T1 sequence (P56470 1-150): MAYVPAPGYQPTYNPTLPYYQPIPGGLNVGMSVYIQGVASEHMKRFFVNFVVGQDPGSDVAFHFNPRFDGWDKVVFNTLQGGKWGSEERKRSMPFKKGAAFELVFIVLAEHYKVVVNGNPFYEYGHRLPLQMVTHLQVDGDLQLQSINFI
Experimental: The molecular recognition event was also analyzed from the perspective of the lectin. Thus, a chemical shift perturbation (CSP) analysis of the changes produced in the ^1H-^15N HSQC spectra recorded for ^15N-labeled Gal-4N upon addition of the different ligands was carried out. This analysis required the NH backbone NMR assignment of the lectin signals, following well-established triple resonance 3D NMR methods (see Materials and methods and Supplementary Information). The assignment protocol allowed assigning 80% of the NH backbone resonances. In addition to the ligands shown in Scheme 1, the corresponding non-fucosylated analogs and the H antigens (devoid of the terminal Gal/GalNAc moieties, see Supplementary Information), as well as lactose, were also employed. Thus, a full comparative analysis on the monosaccharide-specific effects on the lectin CSP was achieved.
The total volume for the NMR samples was 500/μl. The lectin was in phosphate-buffered saline (50 mM sodium phosphate, 150 mM NaCl, pH 7.4), either in D2O or 90:10 H2O:D2O depending on the NMR experiment. The pH was adjusted with the required amount of NaOH and HCl or NaOD and DCl.
experiments were acquired using an 800 MHz Bruker spectrometer with a cryoprobe (Bruker, Billerica, MA, United States). The samples were prepared using 50 μM of the ^15N-labeled lectin in the corresponding buffer in a 90:10 H2O:D2O ratio. The experiments were performed at 298 K. Six to nine points were recorded for each ligand and CSP and KD were calculated using CcpNmr Analysis 2.4.2.

[2] = target: T1, N-terminal CRD of hGalectin-4 (Gal-4N); assay: Isothermal titration calorimetry (ITC)
Experimental: Isothermal titration calorimetry experiments were performed using the MicroCal PEAQ-ITC calorimeter (Malvern Panalytical, Malvern, United Kingdom). Samples containing 100–200 μM of Gal-4N in PBS (50 mM sodium phosphate, pH 7.4, 300 mM NaCl) were titrated with stocks of 3–10 mM in PBS of glycans 4, 5, 7, 8, 9, and 11. During the automated experiment, small aliquots (2–3 μL) of the sugar stocks were added to the cell containing the lectin. Curve fitting to a single binding site model was performed with the MicroCal Origin 7 software.
Isothermal titratrion calorimetry (ITC). Isothermal Titration Calorimetry experiments were performed using MicroCal PEAQ-ITC calorimeter. Samples containing 100-200 µM of Gal-4N in PBS (50 mM sodium phosphate pH 7.4, 300 mM NaCl) were titrated with stocks of 3-10 mM in PBS of glycans A type 1, A type 2, A type 6, B type 1, B type 2 and B type 6. During the automated experiment, small aliquots (2-3 µL) of the sugar stocks were added to the cell containing the lectin. The association constants and the thermodynamic profile of the binding was calculated from the fitting of the titration data to a single binding site model.

[3] = target: T1, N-terminal CRD of hGalectin-4 (Gal-4N); assay: 1H Saturation Transfer Difference (STD) NMR epitope mapping
Experimental: ^1H-saturation transfer difference NMR spectra were acquired for mixtures of Gal-4N (50 μM) with a 50-fold excess of ligand. Protein aromatic irradiation afforded the best STD intensities and thus these are discussed henceforth. The STD NMR spectra were very similar among the different ligands with respect to both the observed glycan protons and their intensities. […] Severe proton overlapping precluded a full comparison among ligands, but key isolated ^1H NMR resonance signals permitted to highlight evident differences.
All the STD NMR experiments were performed using an 800 MHz Bruker spectrometer with a cryoprobe (Bruker, Billerica, MA, United States). The samples were prepared in the corresponding deuterated buffer. The temperature was 288 K for every experiment. An amount of 50 μM of the lectin with 50 equivalents of the ligand was employed for every experiment except for lactose, for which a 1:70 ratio was used. The STD spectra were acquired with 1,024 scans, 2 s of saturation time using a train of 50 ms Gaussian-shaped pulses, and 3 s of relaxation delay. The spin-lock filter applied to remove the signals of the lectin was set at 40 ms. The on-resonance frequency was set for the aromatic region at 6.58 ppm, while the off-resonance frequency was set at 100 ppm.
Supplementary Table S1. Relative STD-AF (Amplification factor) and STD percentage of each non overlapping proton of each ligand.

Kd ([1]; NMR titration, read-out: KD): 1600 µM
SMILES: OC[C@H]1O[C@@H](O[C@H]2[C@H](O)[C@@H](O)C(O)O[C@@H]2CO)[C@H](O)[C@@H](O)[C@H]1O (mixture of isomers) [Lactose]

-TΔS (kcal mol^–1) (ITC) [2]: 1.0 kcal mol^–1
ΔG (kcal mol^–1) (ITC) [2]: −4.9 kcal mol^–1
ΔH (kcal mol^–1) (ITC) [2]: −5.9 kcal mol^–1
Kd ([2]; PBS pH 7.4, single binding site model): 267 µM
SMILES: CC(=O)N[C@@H]1[C@@H](O[C@@H]2O[C@H](CO)[C@H](O)[C@H](O[C@H]3O[C@H](CO)[C@H](O)[C@H](O)[C@H]3NC(C)=O)[C@H]2O[C@@H]2O[C@@H](C)[C@@H](O)[C@@H](O)[C@@H]2O)[C@H](O)[C@@H](CO)O[C@H]1O [A type-1 (tetra)]

Kd ([1]; HSQC NMR-based titration, 50 μM 15N-labeled lectin, 298 K, read-out: KD (μM) (NMR)): 1380 µM
STD% ([3]; 1H-residue H1GalNAc): 95%
STD-AF ([3]; 1H-residue H1GalNAc, 50:1 ligand:lectin, 288 K): 0.0145
STD% ([3]; 1H-residue H1Galβ): 61%
STD-AF ([3]; 1H-residue H1Galβ): 0.0092
STD% ([3]; 1H-residue H2Galβ): 36%
STD-AF ([3]; 1H-residue H2Galβ): 0.0054
STD% ([3]; 1H-residue H3GalNAc): 28%
STD-AF ([3]; 1H-residue H3GalNAc): 0.0043
STD% ([3]; 1H-residue H3GalNAcb): 15%
STD-AF ([3]; 1H-residue H3GalNAcb): 0.0023
STD% ([3]; 1H-residue H3Galβ): 21%
STD-AF ([3]; 1H-residue H3Galβ): 0.0032
STD% ([3]; 1H-residue H4GalNAcb): 24%
STD-AF ([3]; 1H-residue H4GalNAcb): 0.0036
STD% ([3]; 1H-residue H4Galβ): 71%
STD-AF ([3]; 1H-residue H4Galβ): 0.0108
STD% ([3]; 1H-residue H5Galβ): 100%
STD-AF ([3]; 1H-residue H5Galβ): 0.0152
STD-AF ([3]; 1H-residue MetFuc): 0.0012
STD% ([3]; 1H-residue NHAc GalNAc): 68%
STD-AF ([3]; 1H-residue NHAc GalNAc): 0.0104
SMILES: CC(=O)N[C@H]1[C@@H](O[C@H]2[C@@H](O)[C@@H](CO)O[C@@H](O[C@H]3[C@@H](O)[C@@H](CO)O[C@@H](O[C@@H]4[C@@H](O)[C@H](O)O[C@H](CO)[C@@H]4O)[C@@H]3NC(C)=O)[C@@H]2O[C@@H]2O[C@@H](C)[C@@H](O)[C@@H](O)[C@@H]2O)O[C@H](CO)[C@H](O)[C@@H]1O [A type-4 (penta)]
